# Source: patent publication US20240209028A1, “CNP COMPOUNDS” (priority 2022, published 2024)
# Starred links: 1 amine or outer side, 2 acyl side, 3 side chain; linkers in the order of their positions; H or OH if unused. Positions of bridges follow the written chain, without caps; N, C: chain ends. Residues, ends and D or L forms follow the SMILES beside them. *: point of attachment. C18 diacid = O=C(O)CCCCCCCCCCCCCCCCC(=O)*; γGlu = O=C(O)[C@H](CCC(=O)[*:2])N[*:1]; AEEA = NCCOCCOCC(=O)O
# Biological target: T1, human natriuretic peptide receptor 2 (hNPR2) (Homo sapiens, UniProt P20594)
# T1 construct: expressed in transfected cells; host or cells: HEK293 (ATCC CRL-1573), clone 35, co-transfected with pGloSensor-42F
# T1 sequence (P20594 23-1047): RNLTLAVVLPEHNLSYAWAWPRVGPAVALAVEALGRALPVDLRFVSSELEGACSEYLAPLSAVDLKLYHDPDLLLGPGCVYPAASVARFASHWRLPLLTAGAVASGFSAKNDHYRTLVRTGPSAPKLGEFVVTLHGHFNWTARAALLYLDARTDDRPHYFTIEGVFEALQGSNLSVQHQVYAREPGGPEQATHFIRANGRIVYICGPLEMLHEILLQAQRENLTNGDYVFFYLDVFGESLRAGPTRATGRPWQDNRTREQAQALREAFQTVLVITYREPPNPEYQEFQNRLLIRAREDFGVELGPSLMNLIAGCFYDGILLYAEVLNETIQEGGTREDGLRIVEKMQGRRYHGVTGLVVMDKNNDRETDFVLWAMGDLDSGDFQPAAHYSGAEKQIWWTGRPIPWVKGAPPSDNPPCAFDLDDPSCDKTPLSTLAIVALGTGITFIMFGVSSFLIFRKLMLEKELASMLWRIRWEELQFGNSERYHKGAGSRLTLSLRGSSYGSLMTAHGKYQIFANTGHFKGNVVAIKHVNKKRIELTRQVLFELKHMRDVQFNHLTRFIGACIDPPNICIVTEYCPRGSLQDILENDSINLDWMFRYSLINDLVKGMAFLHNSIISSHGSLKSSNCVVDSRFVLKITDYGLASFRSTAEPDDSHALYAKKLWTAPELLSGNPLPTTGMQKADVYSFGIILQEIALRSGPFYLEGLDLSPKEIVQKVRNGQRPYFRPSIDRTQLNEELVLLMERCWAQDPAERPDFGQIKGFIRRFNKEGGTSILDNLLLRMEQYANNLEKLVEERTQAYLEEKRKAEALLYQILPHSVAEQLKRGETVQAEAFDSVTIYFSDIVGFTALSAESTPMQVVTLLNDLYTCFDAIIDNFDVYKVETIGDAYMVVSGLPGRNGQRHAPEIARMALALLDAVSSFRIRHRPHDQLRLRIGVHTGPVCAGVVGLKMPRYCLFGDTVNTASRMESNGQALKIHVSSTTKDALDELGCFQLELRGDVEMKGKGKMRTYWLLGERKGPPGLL
# Assay: In vitro hNPR2 activity assay (cGMP GloSensor reporter, HEK293)
# Format: cell-based
# Details: potency relative to CNP22 (0065)
# Procedure, shortened: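 Potency is the EC50 from a four-parameter logistic fit, also expressed relative to the in-plate CNP22 control (×100), with at least two replicates. Compounds (ten concentrations, […], HSA-free diluent with 1% OVA, 0.01% Tween20) were incubated 30 min at 37 °C on HEK293 cells co-expressing hNPR2 and a GloSensor cGMP luciferase. Luminescence detected with Bright-Glo.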
row,Structure (SMILES),hNPR2 0% HSA. [EC50% rel CNP]
1,CC[C@H](C)[C@@H]1NC(=O)[C@H](CCCNC(=N)N)NC(=O)[C@H](CC(=O)O)NC(=O)[C@H](CC(C)C)NC(=O)[C@@H]2CCCN2C(=O)[C@H](CC(C)C)NC(=O)CNC(=O)[C@H](Cc2ccccc2)NC(=O)[C@@H](NC(=O)CNC(=O)[C@H](CO)NC(=O)[C@H](CO)NC(=O)[C@H](CC(C)C)NC(=O)CNC(=O)[C@H](CCCCN)NC(=O)[C@H](CCCCN)NC(=O)[C@H](CCC(N)=O)NC(=O)[C@H](C)NC(=O)CNC(=O)[C@H](Cc2c[nH]cn2)NC(=O)[C@H](Cc2ccc(O)cc2)NC(=O)COCCOCCNC(=O)COCCOCCNC(=O)CC[C@H](NC(=O)CCCCCCCCCCCCCCCCC(=O)O)C(=O)O)CSSC[C@@H](C(=O)O)NC(=O)CNC(=O)[C@H](CC(C)C)NC(=O)CNC(=O)[C@H](CO)NC(=O)[C@H](CC(C)C)NC(=O)[C@H](CO)NC(=O)CNC1=O [compound 1241] ({C18 diacid-γGlu-AEEA-AEEA}-YHGAQKKGLSSGCFGLPLDRIGSLSGLGC-OH; disulfide 13-29),30.5%
2,CC[C@H](C)[C@@H]1NC(=O)[C@H](CCCNC(=N)N)NC(=O)[C@H](CC(=O)O)NC(=O)[C@H](CC(C)C)NC(=O)[C@@H]2CCCN2C(=O)[C@H](CC(C)C)NC(=O)CNC(=O)[C@H](Cc2ccccc2)NC(=O)[C@@H](NC(=O)CNC(=O)[C@H](CCC(N)=O)NC(=O)[C@H](CO)NC(=O)CNC(=O)CNC(=O)[C@H](CCCCN)NC(=O)[C@H](Cc2c[nH]cn2)NC(=O)[C@H](CCC(N)=O)NC(=O)[C@H](C)NC(=O)CNC(=O)[C@H](CCC(=O)O)NC(=O)[C@H](Cc2ccc(O)cc2)NC(=O)[C@H](CCCCN)NC(=O)[C@H](CCCNC(=N)N)NC(=O)[C@H](C)NC(=O)COCCOCCNC(=O)COCCOCCNC(=O)COCCOCCNC(=O)COCCOCCNC(=O)CC[C@H](NC(=O)CC[C@H](NC(=O)CCCCCCCCCCCCCCCCC(=O)O)C(=O)O)C(=O)O)CSSC[C@@H](C(=O)O)NC(=O)CNC(=O)[C@H](CC(C)C)NC(=O)CNC(=O)[C@H](CO)NC(=O)[C@H](CC(C)C)NC(=O)[C@H](CO)NC(=O)CNC1=O [compound 1432] ({C18 diacid-γGlu-γGlu-AEEA-AEEA-AEEA-AEEA}-ARKYEGAQHKGGSQGCFGLPLDRIGSLSGLGC-OH; disulfide 16-32),26.0%
3,CC[C@H](C)[C@@H]1NC(=O)[C@H](CCCNC(=N)N)NC(=O)[C@H](CC(=O)O)NC(=O)[C@H](CC(C)C)NC(=O)[C@@H]2CCCN2C(=O)[C@H](CC(C)C)NC(=O)CNC(=O)[C@H](Cc2ccccc2)NC(=O)[C@@H](NC(=O)CNC(=O)[C@H](CCC(N)=O)NC(=O)[C@H](CO)NC(=O)[C@H](CC(C)C)NC(=O)CNC(=O)[C@H](CCCCN)NC(=O)[C@H](CCCCN)NC(=O)[C@H](CCC(N)=O)NC(=O)[C@H](C)NC(=O)CNC(=O)[C@H](CCCCN)NC(=O)[C@H](Cc2ccc(O)cc2)NC(=O)COCCOCCNC(=O)COCCOCCNC(=O)COCCOCCNC(=O)COCCOCCNC(=O)CC[C@H](NC(=O)CC[C@H](NC(=O)CC[C@H](NC(=O)CCCCCCCCCCCCCCCCC(=O)O)C(=O)O)C(=O)O)C(=O)O)CSSC[C@@H](C(=O)O)NC(=O)CNC(=O)[C@H](CC(C)C)NC(=O)CNC(=O)[C@H](CO)NC(=O)[C@H](CC(C)C)NC(=O)[C@H](CO)NC(=O)CNC1=O [compound 9480] ({C18 diacid-γGlu-γGlu-γGlu-AEEA-AEEA-AEEA-AEEA}-YKGAQKKGLSQGCFGLPLDRIGSLSGLGC-OH; disulfide 13-29),45.2%
4,CC[C@H](C)[C@@H]1NC(=O)[C@H](CCCNC(=N)N)NC(=O)[C@H](CC(=O)O)NC(=O)[C@H](CC(C)C)NC(=O)[C@@H]2CCCN2C(=O)[C@H](CC(C)C)NC(=O)CNC(=O)[C@H](Cc2ccccc2)NC(=O)[C@@H](NC(=O)CNC(=O)[C@H](CO)NC(=O)[C@H](CO)NC(=O)[C@H](CC(C)C)NC(=O)CNC(=O)[C@H](CCCCN)NC(=O)[C@H](CCCCN)NC(=O)[C@H](CCC(N)=O)NC(=O)[C@H](C)NC(=O)CNC(=O)[C@H](CCC(=O)O)NC(=O)[C@H](Cc2ccc(O)cc2)NC(=O)COCCOCCNC(=O)COCCOCCNC(=O)CC[C@H](NC(=O)CCCCCCCCCCCCCCCCC(=O)O)C(=O)O)CSSC[C@@H](C(=O)O)NC(=O)CNC(=O)[C@H](CC(C)C)NC(=O)CNC(=O)[C@H](CO)NC(=O)[C@H](CC(C)C)NC(=O)[C@H](CO)NC(=O)CNC1=O [compound 1227] ({C18 diacid-γGlu-AEEA-AEEA}-YEGAQKKGLSSGCFGLPLDRIGSLSGLGC-OH; disulfide 13-29),38.2%
5,CC[C@H](C)[C@@H]1NC(=O)[C@H](CCCNC(=N)N)NC(=O)[C@H](CC(=O)O)NC(=O)[C@H](CC(C)C)NC(=O)[C@@H]2CCCN2C(=O)[C@H](CC(C)C)NC(=O)CNC(=O)[C@H](Cc2ccccc2)NC(=O)[C@@H](NC(=O)CNC(=O)[C@H](CO)NC(=O)[C@H](CO)NC(=O)[C@@H](NC(=O)CNC(=O)[C@@H](NC(=O)[C@H](Cc2c[nH]cn2)NC(=O)[C@H](CCC(N)=O)NC(=O)[C@H](C)NC(=O)CNC(=O)[C@H](Cc2c[nH]cn2)NC(=O)[C@H](Cc2ccc(O)cc2)NC(=O)[C@H](CCCCN)NC(=O)[C@H](CCCNC(=N)N)NC(=O)[C@H](C)NC(=O)COCCOCCNC(=O)COCCOCCNC(=O)CC[C@H](NC(=O)CCCCCCCCCCCCCCCCC(=O)O)C(=O)O)[C@@H](C)O)C(C)C)CSSC[C@@H](C(=O)O)NC(=O)CNC(=O)[C@H](CC(C)C)NC(=O)CNC(=O)[C@H](CO)NC(=O)[C@H](CC(C)C)NC(=O)[C@H](CO)NC(=O)CNC1=O [compound 1351] ({C18 diacid-γGlu-AEEA-AEEA}-ARKYHGAQHTGVSSGCFGLPLDRIGSLSGLGC-OH; disulfide 16-32),55.2%
